Patent US20220347196A1, “COMPOSITIONS AND METHODS FOR IMPROVING GASTROINTESTINAL FUNCTION IN SUBJECTS WITH RENAL DISEASE” (priority 2021, published 2022)

Assays:
[1] = test system: subjects with ESRD on hemodialysis with constipation; experiment: Bowel movement consistency and regularity after 12 week 2′-FL treatment; type: in vivo, human; settings: five subjects, 3.3 grams/day for 12 weeks
Procedure: Five subjects with ESRD on hemodialysis with constipation were treated with 2′-FL (3.3 grams/day) for 12 weeks.

[2] = test system: Patients With ESRD On Hemodialysis With Constipation; experiment: Nutrition, hemoglobin and inflammatory biomarkers measured each month during 12 week HMO treatment; type: in vivo, human
Procedure: Five subjects with ESRD on hemodialysis with constipation were treated with 2′-FL (3.3 grams/day) for 12 weeks. Meanwhile, nutrition, hemoglobin, and inflammatory biomarkers were measured in each of the these patients at each month during the treatment.

[3] = Patient 1, month of treatment 0 (baseline), 3.3 grams/day
[4] = Patient 1, month of treatment 1, 3.3 grams/day
[5] = Patient 1, month of treatment 2, 3.3 grams/day
[6] = Patient 1, month of treatment 3, 3.3 grams/day
[7] = Patient 2, month of treatment 0 (baseline), 3.3 grams/day
[8] = Patient 2, month of treatment 1, 3.3 grams/day
[9] = Patient 2, month of treatment 2, 3.3 grams/day
[10] = Patient 2, month of treatment 3, 3.3 grams/day
[11] = Patient 3, month of treatment 0 (baseline), 3.3 grams/day
[12] = Patient 3, month of treatment 1, 3.3 grams/day
[13] = Patient 3, month of treatment 2, 3.3 grams/day
[14] = Patient 3, month of treatment 3, 3.3 grams/day
[15] = Patient 4, month of tx 0 (baseline), 3.3 grams/day
[16] = Patient 4, month of tx 1, 3.3 grams/day
[17] = Patient 4, month of tx 2, 3.3 grams/day
[18] = Patient 4, month of tx 3, 3.3 grams/day
[19] = Patient 5, month of treatment 0 (baseline), 3.3 grams/day
[20] = Patient 5, month of treatment 1, 3.3 grams/day
[21] = Patient 5, month of treatment 2, 3.3 grams/day
[22] = Patient 5, month of treatment 3, 3.3 grams/day
[23] = five subjects, 3.3 grams/day for 12 weeks

For 2′-fucosyllactose [2′-FL], the bowel movement consistency [1] was “from hard stool to soft”, the “bowel movement regularity (on average)” value [1] was “from one bowel movement every other day to one bowel movement every day” and the Albumin [2, 3] was 3.6 g/dL. The Ferritin [2, 3] was 548 ng/mL, the Hg [2, 3] was 10.6 g/dL and the Albumin [2, 4] was 3.7 g/dL. The CRP [2, 4] was 0.7 mg/L, the Ferritin [2, 4] was 546 ng/mL and the Hg [2, 4] was 10.5 g/dL. For the same substance, the Albumin [2, 5] was 3.8 g/dL, the CRP [2, 5] was 0.5 mg/L and the Ferritin [2, 5] was 503 ng/mL. For the same substance, the Hg [2, 5] was 11.2 g/dL, the Albumin [2, 6] was 3.5 g/dL and the CRP [2, 6] was 0.3 mg/L. The Ferritin [2, 6] was 364 ng/mL, the Hg [2, 6] was 10.7 g/dL and the Albumin [2, 7] was 4.2 g/dL. For the same substance, the Ferritin [2, 7] was 1250 ng/mL, the Hg [2, 7] was 11.2 g/dL and the Albumin [2, 8] was 4.3 g/dL. It also gave a CRP [2, 8] of 6.2 mg/L, a Ferritin [2, 8] of 1188 ng/mL and a Hg [2, 8] of 11.3 g/dL. It also gave an Albumin [2, 9] of 4.2 g/dL, a CRP [2, 9] of 4.3 mg/L and a Ferritin [2, 9] of 1000 ng/mL. The Hg [2, 9] was 10.6 g/dL, the Albumin [2, 10] was 4.2 g/dL and the CRP [2, 10] was 2.3 mg/L. It also gave a Ferritin [2, 10] of 899 ng/mL, a Hg [2, 10] of 10.2 g/dL and an Albumin [2, 11] of 3.9 g/dL. The Ferritin [2, 11] was 1243 ng/mL, the Hg [2, 11] was 10.5 g/dL and the Albumin [2, 12] was 4 g/dL. The CRP [2, 12] was 19 mg/L, the Ferritin [2, 12] was 1135 ng/mL and the Hg [2, 12] was 11.3 g/dL. For the same substance, the Albumin [2, 13] was 3.9 g/dL, the CRP [2, 13] was 1.9 mg/L and the Ferritin [2, 13] was 827 ng/mL. It also gave a Hg [2, 13] of 10.9 g/dL, an Albumin [2, 14] of 4 g/dL and a CRP [2, 14] of 1.6 mg/L. It also gave a Ferritin [2, 14] of 907 ng/mL, a Hg [2, 14] of 11.2 g/dL and an Albumin [2, 15] of 3.9 g/dL. The Ferritin [2, 15] was 1487 ng/mL, the Hg [2, 15] was 10.8 g/dL and the Albumin [2, 16] was 3.9 g/dL. For the same substance, the CRP [2, 16] was 2 mg/L, the Ferritin [2, 16] was 1208 ng/mL and the Hg [2, 16] was 10.5 g/dL. For the same substance, the Albumin [2, 17] was 3.9 g/dL, the CRP [2, 17] was 1.5 mg/L and the Ferritin [2, 17] was 749 ng/mL. The Hg [2, 17] was 11.3 g/dL, the Albumin [2, 18] was 3.8 g/dL and the CRP [2, 18] was 1.5 mg/L. The Ferritin [2, 18] was 985 ng/mL, the Hg [2, 18] was 11.4 g/dL and the Albumin [2, 19] was 4.1 g/dL. For the same substance, the Ferritin [2, 19] was 580 ng/mL, the Hg [2, 19] was 12.2 g/dL and the Albumin [2, 20] was 4.1 g/dL. The CRP [2, 20] was 27.5 mg/L, the Ferritin [2, 20] was 431 ng/mL and the Hg [2, 20] was 12.6 g/dL. For the same substance, the Albumin [2, 21] was 3.9 g/dL, the CRP [2, 21] was 28 mg/L and the Ferritin [2, 21] was 313 ng/mL. For the same substance, the Hg [2, 21] was 12.2 g/dL, the Albumin [2, 22] was 3.8 g/dL and the CRP [2, 22] was 12.4 mg/L. The Ferritin [2, 22] was 332 ng/mL, the Hg [2, 22] was 12 g/dL and the “anemia (hemoglobin), average” value [2, 23] was “improvement or stabilization”. For the same substance, the “nutrition (albumin), average” value [2, 23] was “improvement or stabilization”, the “serum inflammatory marker CRP (C-reactive protein), average” value [2, 23] was “significant and persistent reduction” and the “serum inflammatory marker ferritin, average” value [2, 23] was “significant and persistent reduction”.
